The text below walks through data of article PMC6422423, “Constitutively active BRS3 is a genuinely orphan GPCR in placental mammals” (PLoS Biology, 2019).

In test [1] the target is spotted gar BRS3 (sBRS3). As to the kind of experiment: Radioligand binding (competition). Particulars: transfected HEK293 cells, 1 h 21°C, pH 7.4, mean ± SE, at least three experiments. Set-up: species or system Lepisosteus oculatus. As to the method: (§1) HEK293 cells were seeded in a 10-cm tissue culture dish at a density of 10^6 cells per dish and grown overnight at 37°C in growth medium. The following morning, 5 μg of different species’ BRS3 plasmids were transfected. After 6 h, the medium was replaced with growth medium. Cells were maintained at 37°C in a 5% CO2 atmosphere and used 48 h later for binding assays. The positive control group included transfected GRPR and NMBR; the test group consisted of transfected BRS3 from different species. Then, [^125I]-Tyr^42-GRP and [^125I]-Tyr-NMB were used as the ligands to assess affinity to the various receptors. […] The cell concentration was adjusted to between 0.05 and 4 × 10^6 cells/ml for each receptor such that less than 20% of the total added radioactive ligand was bound during the incubation, and the results were compared to cells transfected with GRPR or NMBR adjusted in concentration to bind a similar amount of ligand. After the incubation, 100 μl aliquots were added to 1.5-ml microfuge tubes, which contained 100 μl of binding buffer to determine the total radioactivity. The bound tracer was separated from unbound tracer by pelleting the cells through the binding buffer by centrifugation at 10,000g in a Microfuge E (Beckman) for 3 min. The supernatant was aspirated, and the pelleted cells were rinsed twice with a washing buffer that contained 1% (w/v) BSA in PBS. The amount of radioactivity bound to the cells was measured in a Cobra II Gamma counter (Packard Instruments). Binding was expressed as the percentage of total radioactivity that was associated with the cell pellet. All binding values represented saturable binding; nonsaturable binding was <15% of the total binding in all experiments. Each point was measured in duplicate, and each experiment was replicated at least four times. […] All the experiment data were calculated using 1 pM ligand-treated as 100% control.

In test [2] the test system is mouse BRS3 (mBRS3). As to the kind of experiment: Intracellular calcium assay (WT and mutants). The class given is cell-based. As to conditions: for Calcium fold: 10 nM peptide, HEK293, Fluo8, mBRS3; for Intracellular Ca2+, mutants (in words): mBRS3 R127Q, S205P, and H294R, all three. As to the method:
(§2) Intracellular calcium was measured using the non-wash calcium assay Fluo8 kit (ab112129, Abcam) according to the manufacturer’s instructions. Briefly, HEK293 cells were seeded in 24-well plates and were transfected with GRPR, NMBR, BRS3, or the empty vector plasmid pcDNA3.1-V5-His (300 ng) and incubated overnight at 37°C with 5% CO2. The next day, the cells were replated into a 96-well assay plate (black plate and clear bottom). After 12 h, growth media were aspirated, and calcium dye was added. […] The basal fluorescence intensity was recorded 15 times at 1 Hz for […]. The results were normalized to the average basal fluorescence intensity in ratio, and the peak response was used for the result calculation. Calcium fold was calculated using no stimulation data as standard value.
On the technique in general: Calcium assays in cells follow changes in intracellular calcium, usually with a dye or a luminescent sensor.

The test system of test [3] is human BRS3 (hBRS3). As to the kind of experiment: Intracellular calcium assay (WT and mutants). The class given is cell-based. Particulars: 10 nM peptide; for Calcium fold: HEK293, Fluo8, hBRS3; for Intracellular Ca2+, mutants vs wild type (in words): hBRS3 R127Q, S205P, and H294R, each. As to the method: as §2
Test [4] has as its system BRS3 receptors in nonplacental vertebrates. As to the kind of experiment: ERK1/2 phosphorylation, nonplacental pooled. As to conditions: 1,000 nM peptide, 0/2/5 min, HEK293. The class given is cell-based, koala, platypus, chicken, turtle, frog, and spotted gar. As to the method: (§3) For ERK1/2 phosphorylation, HEK293 cells were seeded in 24-well plates and transfected with GRPR, NMBR, BRS3, mutants of different species’ BRS3, or an empty vector plasmid, pcDNA3.1-V5-His plasmid (300 ng). […] Each sample with an equal amount of protein was mixed with 6×SDS sample buffer, boiled for 5 min, and separated on 10% SDS-polyacrylamide gel electrophoresis (PAGE) before transferring the proteins onto a PVDF membrane. The membranes were then blocked at room temperature for 1 h with 5% milk powder in Tris-buffered saline-Tween (TBST), followed by subsequent incubation at 4°C overnight in TBST containing the different primary antibodies (1:1,000 dilution). After washing three times (10 min each time) with TBST, the membranes were incubated for 1 h in TBST containing the secondary antibodies (1:2,000 dilution), followed by washing three times (10 min each time) with TBST, prior to detection by chemiluminescence.

The test system of a further test is aardvark BRS3 (aBRS3). Briefly: ERK1/2 phosphorylation (WT and mutants). The class given is cell-based, Orycteropus afer. As to conditions: aBRS3 R127Q, S205P, and H294R, all three. As to the method:
as §3

For test [5], the target named is placental mammalian BRS3 (hBRS3, mBRS3, and aBRS3). Briefly: Radioligand binding, placental mammals pooled. Set-up: species or system human, mouse, aardvark. Particulars: for Ki: BRS3s in placental mammals; for Direct binding (in words): hBRS3, mBRS3, aBRS3, transfected HEK293 cells. As to the method: as §1
The subject of test [6] is BRS3 receptors in nonplacental vertebrates. As to the kind of experiment: Intracellular calcium assay, nonplacental pooled. The class given is cell-based, koala, platypus, chicken, turtle, frog, and spotted gar. Particulars: 10 nM peptide, HEK293. As to the method:
as §2

Another test has as its target turtle BRS3 (tBRS3). As to the kind of experiment: Radioligand binding (competition). Details: species or system Chrysemys picta. As to conditions: transfected HEK293 cells, 1 h 21°C, pH 7.4, mean ± SE, at least three experiments. As to the method:
as §1

Test [7] concerns spotted gar BRS3 (sBRS3). As to the kind of experiment: Intracellular calcium assay (WT and mutants). The class given is cell-based, Lepisosteus oculatus. As to conditions: for Calcium fold: 10 nM peptide, HEK293, Fluo8, sBRS3; for Intracellular Ca2+, mutants (in words): sBRS3 Q127R, P205S, and R294H. As to the method: as §2
Test [8] relates to BRS3 receptors of placental mammals. As to the kind of experiment: Luciferase reporter, GRP/NMB stimulated, placental pooled. The class given is cell-based, human, mouse, dog, and aardvark. As to conditions: CRE/NFAT-RE/SRF-RE/SRE reporters; 0/10/100/1,000 nM, 12 h, HEK293. As to the method:
To detect constitutive activity of BRS3, HEK293 cells were seeded in 24-well plates and cotransfected with the CRE/NFAT-RE/SRF-RE/SRE luciferase reporter plasmids (50 ng), the BRS3 from different species, or BRS3 mutants with different doses (10 ng/50 ng/150 ng); after 24 h, cells were further incubated in serum-free media for another 12 h before luciferase assay. As for peptide supplementation treatment, HEK293 cells were cotransfected with the CRE/NFAT-RE/SRF-RE/SRE luciferase reporter plasmids (50 ng) and various genes (300 ng) of the bombesin receptor family. […] Luciferase activities were determined using luciferase assay kits (Beyotime, Shanghai, China) and normalized to β-galactosidase activity. All experiments were performed at least three times in triplicates. HEK293 cells transfected with pcDNA were used as a blank control in all luciferase experiments, and the fold was calculated compared to blank control.
A general note: A reporter such as luciferase makes a cellular process visible.

Test [9] concerns mouse BRS3 (mBRS3). As to the kind of experiment: ERK1/2 phosphorylation (WT and mutants). The class given is cell-based. As to conditions: mBRS3 R127Q, S205P, and H294R, all three. As to the method: as §3
The subject of test [10] is human BRS3 (hBRS3). Briefly: ERK1/2 phosphorylation (WT and mutants). The class given is cell-based. As to the method:
as §3

One may read the IC50 as the concentration that inhibits the measured activity by half. The low end stands for inhibition by little substance, the high end for a need for much substance. In general, Ki refers to a measure of affinity in units of concentration, obtained from inhibition or displacement. A high value points to weaker binding.

Turning to “GSHWAVGHLM-NH2 [GRP, gastrin-releasing peptide]”, the IC50 was 0.17 nM on spotted gar BRS3 (sBRS3) [1] (50 pM [125I]-Tyr42-GRP), 0.54 nM on spotted gar BRS3 (sBRS3) [1] (50 pM [125I]-Tyr-NMB), 0.14 nM at turtle BRS3 (tBRS3) (50 pM [125I]-Tyr42-GRP) and 0.28 nM on turtle BRS3 (tBRS3) (50 pM [125I]-Tyr-NMB). The Calcium fold with mouse BRS3 (mBRS3) [2] (replicate 1) stood at 1.0113 fold; with mouse BRS3 (mBRS3) [2] (replicate 2) it was 1.0374 fold; in the test with mouse BRS3 (mBRS3) [2] (replicate 3) it was 1.111 fold; with human BRS3 (hBRS3) [3] (replicate 1), 1.1274 fold; with human BRS3 (hBRS3) [3] (replicate 2), 1.2515 fold; in the test on human BRS3 (hBRS3) [3] (replicate 3) it was 1.1684 fold. Further, the Calcium fold in the test on spotted gar BRS3 (sBRS3) [7] (replicate 1) was determined as 4.5257 fold; in the test on spotted gar BRS3 (sBRS3) [7] (replicate 2), 4.9378 fold; with spotted gar BRS3 (sBRS3) [7] (replicate 3), 5.3682 fold. The entries for the “Intracellular Ca2+, mutants (in words)” value with mouse BRS3 (mBRS3) [2] and in the test with spotted gar BRS3 (sBRS3) [7] were “significant increase in cellular Ca^2+ ions levels” and “significant effects”, respectively. For the same substance, the “Intracellular Ca2+, mutants vs wild type (in words)” value in the test on human BRS3 (hBRS3) [3] is “remarkable increase of cellular Ca^2+ ions”. In [4], the “ERK phosphorylation (in words)” value was “increase in the levels of phosphorylated ERK”. In addition, the “ERK phosphorylation, mutants (in words)” value with aardvark BRS3 (aBRS3) and with mouse BRS3 (mBRS3) [9] was “lead to ERK phosphorylation signal” each time. Further, the Ki in test [5] is more than 1000 nM. The “Direct binding (in words)” value in [5] is listed as “no binding was detected”. In addition, the “Intracellular Ca2+ (in words)” value in test [6] is listed as “remarkable increase of Ca^2+ ions in cells”. In test [8], the “Luciferase stimulation (in words)” value is reported as “stimulation of luciferase units cannot be detected”. The “ERK phosphorylation, mutant (in words)” value in the test with human BRS3 (hBRS3) [10] (hBRS3 H294R) is “could be detected”; with human BRS3 (hBRS3) [10] (hBRS3 R127Q), “could be detected”; with human BRS3 (hBRS3) [10] (hBRS3 S205P), “the effect is not obvious”.

In the case of neuromedin B [NMB], the IC50 at spotted gar BRS3 (sBRS3) [1] (50 pM [125I]-Tyr42-GRP) worked out at 1.74 nM; on spotted gar BRS3 (sBRS3) [1] (50 pM [125I]-Tyr-NMB), 2.65 nM; on turtle BRS3 (tBRS3) (50 pM [125I]-Tyr42-GRP), 1.14 nM; on turtle BRS3 (tBRS3) (50 pM [125I]-Tyr-NMB), 2.82 nM. In addition, the entries for the “Intracellular Ca2+, mutants (in words)” value with mouse BRS3 (mBRS3) [2] and in the test on spotted gar BRS3 (sBRS3) [7] were “significant increase in cellular Ca^2+ ions levels” and “significant effects”, respectively. In the test on human BRS3 (hBRS3) [3], the “Intracellular Ca2+, mutants vs wild type (in words)” value was “remarkable increase of cellular Ca^2+ ions”. In addition, the “ERK phosphorylation (in words)” value in [4] is given as “increase in the levels of phosphorylated ERK”. Further, the “ERK phosphorylation, mutants (in words)” value in the test with aardvark BRS3 (aBRS3) and in the test with mouse BRS3 (mBRS3) [9] was “lead to ERK phosphorylation signal” throughout. This substance displayed a Ki in test [5] of more than 1000 nM. For the same substance, the “Direct binding (in words)” value in test [5] was “no binding”. Further, the “Intracellular Ca2+ (in words)” value in test [6] is recorded as “remarkable increase of Ca^2+ ions in cells”. Also, the “Luciferase stimulation (in words)” value in test [8] is listed as “stimulation of luciferase units cannot be detected”. Besides, the results for the “ERK phosphorylation, mutant (in words)” value in the test on human BRS3 (hBRS3) [10] (hBRS3 H294R), in the test with human BRS3 (hBRS3) [10] (hBRS3 R127Q) and in the test on human BRS3 (hBRS3) [10] (hBRS3 S205P) were “could be detected”, “could be detected” and “the effect is not obvious”, respectively.
